In a melting point compilation (Tetko et al.) one finds melting point data, which are given here for 112 compounds.

As a reminder, the melting point is the temperature of the solid-liquid transition.

`Cc1ccc(S(=O)(=O)CCO)cc1`: the melting point is 54 to 58 °C.
Next, `CC12C=CC(=O)C=C1CCC1C2CCC2(C)C(O)CCC12` (configuration not stated): 165 °C; `Brc1ccc(N(c2ccc(Br)cc2)c2ccc(Br)cc2)cc1`: 142 °C.
Under `COC(=O)C=Cc1ccc(O)c(OC)c1` stands 64 °C.
Under `N=C(N)C(F)(F)C(F)(F)C(F)(F)F` stands 49 to 51 °C.
`O=C(Oc1cccc2cccnc12)c1ccccc1` displayed a melting point of 119 °C.
Compound `CCCc1ccccn1` came in with a melting point of 2 °C.
As for `O=[N+]([O-])c1ccc(F)cc1Cl`, the melting point is 35 °C.
Under `ICC(CI)(CI)CI` stands 225 °C; under `COc1cccc(OC)c1SC`, 79 to 80 °C.
In the case of `CC(C)N(C1=NC(=Cc2ccccc2)C(=O)N1c1ccccc1)C(C)C`, the melting point was determined as 167 °C.
Next, `CC(C)n1c2c(c(=O)[nH]c1=O)CCCC2`: 229 to 230 °C; `O=C(O)CCSC=Cc1ccccc1`: 117 to 120 °C; `CC(=O)Oc1cccc(N=Nc2cccc(OC(C)=O)c2)c1`: 144 °C.
Next, `S=C(Nc1ccccc1)c1ccccc1`: 102 °C; `COc1ccc(C=C2C(=O)NN=C2c2c(O)c3ccccc3n(C)c2=O)cc1`: 250 °C; `Oc1cc(C(F)(F)F)ccn1`: 159 °C.
In the case of `CCCC1C2=C(OC(=O)C1(C)C)c1ccc(OC)cc1CC2` (configuration not stated), the melting point is 129 °C.
Under `COC(=O)C(NC(=O)OCc1ccccc1)P(=O)(OC)OC` (configuration not stated) stands 78 °C.
Next, `CCOc1ccc(C=O)cc1OCC`: 22 °C; `Oc1ccc(C(F)(F)F)cn1`: 145 to 148 °C.
Next, `CCOC(=O)c1c(NC(=S)Nc2ccc(Br)cc2)sc2c1CCCC2`: 204 to 205 °C.
`CC(=O)OC1C(C2COC(C)(C)O2)OC2OC(C)(C)OC21` (configuration not stated): the melting point lay in the range of 60 to 62 °C.
As to `CCCCCCCCCCCCCCCC#N`, the melting point came to 31 °C.
Next, `CCC1(CC)COC(=O)NC1=O`: 97.5 °C; `COc1ccc(-c2nnc3n2NC(c2ccccc2OC)S3)cc1` (configuration not stated): 166 °C; `NS(=O)(=O)c1cc(Cl)ccc1F`: 135 °C.
As to `O=c1ccn(C2CCC(CO)O2)c(=O)[nH]1` (configuration not stated), the melting point was 128 °C.
`BrCc1cccc(-c2cccs2)c1` registered a melting point of 57 °C.
Under `Ic1ccc(-n2cccc2)cc1` stands 131 °C.
Regarding `N#Cc1ccc(Br)cn1`, the melting point was 126 °C.
Take `O=C(Cl)c1nnc(-c2ccccc2)o1`: the melting point fell in the range of 80 to 90 °C.
Under `CC(C)(C1CCCCC1)C1CCCCC1` stands 15.6 °C; under `C=CC=CC(=O)O`, 79 °C; under `CCC(=NNc1cccc(NN=C(CC)C(=O)O)c1)C(=O)O`, 190 °C.
Next, `Nc1ccc([N+](=O)[O-])cc1Cl`: 108 °C.
Under `CCOC(=O)c1[nH]c(C)c(C(=O)OCC)c1C` stands 137 °C; under `COc1cc(C(=O)O)cc(Cl)n1`, 214 to 216 °C.
`COc1cc(O)c2c(=O)c(O[C@@H]3O[C@H](CO)[C@H](O)[C@H](O)[C@@H]3O[C@@H]3O[C@H](C)[C@H](O)[C@H](O)[C@@H]3O)c(-c3cccc(O)c3)oc2c1` gave a melting point of 182 to 188 °C.
Under `O=C1C=CC(=O)C(Cl)=C1` stands 52 to 57 °C.
Under `O=C(N=NC(=O)OCc1ccccc1)OCc1ccccc1` stands 44 to 52 °C.
In the case of `O=c1cccco1`, the melting point was found to be 8.5 °C.
Under `CC1OC(Oc2ccc([N+](=O)[O-])cc2)C(O)C(O)C1O` (configuration not stated) stands 191 to 192 °C.
As to `O=C1OC(O)c2cc(Cl)c(Cl)cc21` (configuration not stated), the melting point was found to be 180 °C.
Compound `O=[N+]([O-])c1cc([N+](=O)[O-])c(Cl)c(C(F)(F)F)c1` had a melting point of 63 °C.
With `C/C(=N\Nc1ccc([N+](=O)[O-])cc1[N+](=O)[O-])c1ccccc1O`, the melting point is 259 °C.
`Cn1c(CO)cc2occc21` had a melting point of 74 to 76 °C.
Next, `Cc1n[nH]c2c(=O)n(-c3ccc(Cl)cc3)c(C)nc12`: 313 to 315 °C; `CCOC(=O)c1sc(C)nc1-c1ccccc1`: 44 to 47 °C.
Under `O=C(O)CCc1c(Cl)cccc1Cl` stands 95 to 97 °C; under `CC(Oc1ccc(O)cc1)C(=O)O` (configuration not stated), 143 to 147 °C; under `N#Cc1cc(Br)ccc1N`, 93 to 98 °C.
`Nc1nc2ccc(OC(F)(F)F)cc2s1` had a melting point of 119 °C.
Compound `CCOP(=S)(OCC)SCn1nnc2ccccc2c1=O` registered a melting point of 53 °C.
In turn, `NS(=O)(=O)c1c(Cl)nc2sccn12` returned a melting point of 176 to 177 °C.
Under `O=[N+]([O-])c1ccc(C=NN(c2ccccc2)P(=O)(N2CC2)N2CC2)cc1` stands 150 °C.
`N#Cc1ccc(Oc2ccccc2)cc1` displayed a melting point of 45 to 48 °C.
In the case of `COc1cccnc1Cl`, the melting point came to 47 °C.
`O=C(O)c1cccc(SC(F)(F)F)c1` displayed a melting point of 73 °C.
Under `Nc1c(Cl)c(Cl)nc(C(=O)O)c1Cl` stands 218 °C; under `C=CC1(C(C)CCC)C(=O)NC(=O)NC1=O` (configuration not stated), 90 °C; under `CC(C)(C)OC(=O)N1CCN(Cc2cccc(C(=O)O)c2)CC1`, 173 to 175 °C.
Turning to `COC(=O)CCC(C)C1CCC2C3CCC4CC(=O)CCC4(C)C3CCC12C` (configuration not stated), the melting point was in the range of 116 to 118 °C.
For the compound `N#C/C(=N\Nc1cccc(O)c1)c1nc2ccccc2[nH]1`, the melting point came out at 238 °C.
Under `Oc1ccc(Cl)nc1` stands 155 °C.
Next, `C=C(C)CCC=C(C)C`: -70 °C; `Oc1cc(Cl)cnc1O`: 295 °C.
Under `NS(=O)(=O)c1cc2c(cc1Cl)CN(C1CCCCC1)C2=O` stands 267 °C; under `FC(F)(F)C(F)(F)C(F)(F)C(F)(F)C(F)(F)C(F)(F)C(F)(F)C(F)(F)CCI`, 82.5 °C.
In the case of `Clc1ccc2c(c1)oc1c(Cl)c(Cl)cc(Cl)c12`, the melting point stood at 190 °C.
Consider `CCOC(=O)/C(=C\c1ccccc1)c1ccccc1[N+](=O)[O-]`, for which the melting point turned out to be 95 °C.
Next, `Sc1cc(Cl)cc(Cl)c1`: 59 to 61 °C; `CCc1ccc(CCOc2ccc(CC3SC(=O)NC3=O)cc2)nc1` (configuration not stated): 184 °C.
Next, `CCN(CC)c1c([N+](=O)[O-])cc(C(F)(F)F)c(N)c1[N+](=O)[O-]`: 98.5 °C; `O=C(O)c1nccnc1C(=O)O`: 188 °C; `COc1ccc(C(N)=S)cc1[N+](=O)[O-]`: 191 to 192 °C.
In turn, `Cn1c(=O)[nH]c2ccccc21` yielded a melting point of 192 to 196 °C.
Turning to `C=C(C)CCCCCCCCCCCC`, the melting point is -15 °C.
`Cn1ncc2c(NCCNC3=CC(=O)c4ccccc4C3=O)ncnc21` had a melting point of 257 °C.
Next, `Oc1ccc2ncccc2c1`: 190 to 195 °C.
Next, `O=C(OC(=O)C(F)(F)C(F)(F)C(F)(F)F)C(F)(F)C(F)(F)C(F)(F)F`: -43 °C; `O=C(O)C(O)n1ccnc1` (configuration not stated): 275 °C.
Next, `COC(=O)c1sccc1S(=O)(=O)NC(=O)Nc1nc(C)nc(OC)n1`: 176 °C.
In turn, `CCOC(=O)c1c[nH]c(S)n1` returned a melting point of 191 to 193 °C.
Regarding `Cc1ccc(N=c2sccn2C)c(C)c1`, the melting point is 44 °C.
The compound `Oc1nccc(C(F)(F)F)n1` registered a melting point of 217 to 218 °C.
`O=C(O)c1ccccc1OC1CCOCC1` registered a melting point of 53 to 54 °C.
Under `O=C(OCC(=O)N1CCCCC1)c1ccccc1` stands 88 °C.
`CC1=CC(=O)C(C(C)C)=CC1=O` came in with a melting point of 45.5 °C.
Turning to `O=C(Nc1ccccc1)c1cccc(S(=O)(=O)Nc2ccccc2)c1`, the melting point is 212 to 215 °C.
In the case of `ClCc1ccc(CCl)cc1`, the melting point was 100 °C.
Compound `O=C(O)Cc1ccc(CO)cc1` had a melting point of 133 °C.
`Nc1ccn(C2CCC(CO)O2)c(=O)n1` (configuration not stated) returned a melting point of 218 °C.
For `COS(=O)(=O)c1cc([N+](=O)[O-])ccc1C=Cc1ccc([N+](=O)[O-])cc1S(=O)(=O)OC`, the melting point was 228 °C.
Turning to `CC12CCC(O)CC1CCC1C2CCC2(C)C1CCC2(C)O` (configuration not stated), the melting point worked out at 164 °C.
`CC(=NO)c1ccn(S(=O)(=O)c2ccccc2)c1`: the melting point lay within 162 to 165 °C.
Next, `CCCCCCCOO`: 35.5 °C; `CC(=O)Nc1ccc(C=CC(=O)c2ccccc2)cc1`: 179 °C.
On to `Cc1ccc(S(=O)(=O)n2ccnc2)cc1`, for which the melting point was 75 to 80 °C.
Next, `CC(C)(C)OC(=O)N1CCN(Cc2cccc([N+](=O)[O-])c2)CC1`: 84 to 85 °C; `O=C1NN(c2ccccc2)C(=O)C1=Cc1ccc(F)cc1`: 300 °C.
Compound `ClCc1nc(-c2cccs2)no1` returned a melting point of 59 to 60 °C.
Regarding `CC(C)C(C(=O)O)c1ccccc1` (configuration not stated), the melting point stood at 60 °C.
In the case of `CC=CC=CCCCCCCCO`, the melting point was 32 °C.
For the compound `CC(=O)N(C(C)=O)c1cc(C=CC(=O)O)ccc1C=CC(=O)O`, the melting point was in the range of 310 to 315 °C.
Under `CC(CO)(CO)CO` stands 204 °C; under `ClC1CCCCC1`, -44 °C; under `CC12CCC(C(=CNC(N)=O)C1=O)C2(C)C` (configuration not stated), 197 °C.
As to `Nc1cc(-c2cccs2)n[nH]1`, the melting point was 101 °C.
Next, `O=C(O)/C=C/c1ccc(I)o1`: 145 °C; `Cc1cc(C)n2nc(N)c(Cc3ccc(F)cc3)c2n1`: 208 to 210 °C; `C=CCCCC(=O)O`: -37 °C.
